Data published in the supplement of paper PMC10307832.

Tests used:
Test in all cases: relative viability (nuclei count vs DMSO), 5 days (fraction); higher = more cells survive
[1] = compound: C1COCCN1C2=NC(=NC3=C2OC4=C3C=CC=N4)C5=CC(=CC=C5)NC(=O)C6=CN=C(C=C6)N + COc1cccc2cc(-c3nc([C@H]4CC[C@H](C(=O)O)CC4)n4ncnc(N)c34)[nH]c12 [OSI-027] (partner 0.5 µM)
Method in brief: (§1)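 Values are medians from duplicate plates. Each reflects relative viability, defined as the nuclei count of treated wells over that of vehicle wells. Lung cancer cell lines in 1536-well plates were pin-tool dosed one day after seeding with one drug alone or with a fixed anchor-drug dose plus five library-drug doses (not always all listed) in √10 steps, then fixed, stained and imaged at 4× after 5 days.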

[2] = compound: C1COCCN1C2=NC(=NC3=C2OC4=C3C=CC=N4)C5=CC(=CC=C5)NC(=O)C6=CN=C(C=C6)N + O=C(CCCCCCC(=O)Nc1ccccc1)NO [Vorinostat] (partner 1 µM)
Method in brief: as §1

SGI-1776 + OSI-027 = compound: CN1CCC(CNc2ccc3ncc(-c4cccc(OC(F)(F)F)c4)n3n2)CC1 [SGI-1776] + COc1cccc2cc(-c3nc([C@H]4CC[C@H](C(=O)O)CC4)n4ncnc(N)c34)[nH]c12 [OSI-027] (partner 0.5 µM)
Method in brief: as §1

Entinostat + Alpelisib = compound: Nc1ccccc1NC(=O)c1ccc(CNC(=O)OCc2cccnc2)cc1 [Entinostat] + Cc1nc(NC(=O)N2CCC[C@H]2C(N)=O)sc1-c1ccnc(C(C)(C)C(F)(F)F)c1 [Alpelisib] (partner 2 µM)
Method in brief: as §1

| Cell Line | relative viability ([1]; first compound 0.02 µM) | relative viability ([1]; first compound 0.06325 µM) | relative viability ([1]; first compound 0.2 µM) | relative viability ([1]; first compound 0.6325 µM) | relative viability ([1]; first compound 2 µM) | relative viability ([2]; first compound 0.02 µM) | relative viability ([2]; first compound 0.06325 µM) | relative viability ([2]; first compound 0.2 µM) | relative viability ([2]; first compound 0.6325 µM) | relative viability ([2]; first compound 2 µM) | relative viability (SGI-1776 + OSI-027; first compound 0.08 µM) | relative viability (SGI-1776 + OSI-027; first compound 0.8 µM) | relative viability (SGI-1776 + OSI-027; first compound 2.53 µM) | relative viability (SGI-1776 + OSI-027; first compound 8 µM) | relative viability (Entinostat + Alpelisib; first compound 0.02 µM) | relative viability (Entinostat + Alpelisib; first compound 0.06325 µM) | relative viability (Entinostat + Alpelisib; first compound 0.2 µM) | relative viability (Entinostat + Alpelisib; first compound 0.6325 µM) | relative viability (Entinostat + Alpelisib; first compound 2 µM) |
| --- | --- | --- | --- | --- | --- | --- | --- | --- | --- | --- | --- | --- | --- | --- | --- | --- | --- | --- | --- |
| SK-MES-1 | 0.572 | 0.664 | 0.589 | 0.426 | 0.337 | 1.12 | 1.22 | 1.09 | 1.03 | 0.72 | 0.673 | 0.585 | 0.649 | 0.314 | 0.932 | 1.02 | 1.05 | 0.81 | 0.682 |
| NCI-H3122 | 0.998 | 1.01 | 0.835 | 0.977 | 0.347 | 0.924 | 1.09 | 0.946 | 1.06 | 0.639 | 0.988 | 0.967 | 0.926 | 0.862 | 0.777 | 0.881 | 0.786 | 0.733 | 0.605 |
| NCI-H2085 | 0.792 | 0.829 | 0.62 | 0.46 | 0.44 | 0.736 | 0.802 | 0.75 | 0.704 | 0.706 | 0.745 | 0.828 | 0.853 | 0.44 | 0.947 | 0.946 | 0.766 | 0.634 | 0.502 |
| PC-14 | 0.976 | 1.2 | 0.977 | 0.554 | 0.233 | 0.784 | 0.816 | 0.648 | 0.603 | 0.362 | 0.857 | 0.945 | 0.671 | 0.0734 | 1.03 | 0.99 | 0.935 | 0.487 | 0.219 |
| NCI-H1355 | 0.397 | 0.401 | 0.336 | 0.359 | 0.363 | 0.695 | 0.737 | 0.614 | 0.598 | 0.538 | 0.46 | 0.486 | 0.402 | 0.305 | 0.83 | 0.806 | 0.641 | 0.514 | 0.426 |
| NCI-H727 | 0.542 | 0.517 | 0.624 | 0.588 | 0.541 | 1.14 | 1.22 | 1.05 | 1.22 | 1.12 | 0.543 | 0.627 | 0.615 | 0.438 | 0.708 | 0.669 | 0.545 | 0.264 | 0.297 |
| NCI-H1755 | 0.797 | 0.738 | 0.797 | 0.622 | 0.558 | 0.7 | 0.868 | 0.698 | 0.635 | 0.562 | 0.703 | 0.637 | 0.533 | 0.529 | 0.87 | 0.921 | 0.838 | 0.512 | 0.353 |
| NCI-H1651 | 0.643 | 0.812 | 0.703 | 0.617 | 0.472 | 0.382 | 0.595 | 0.563 | 0.537 | 0.529 | 0.81 | 0.683 | 0.677 | 0.529 | 1.08 | 0.979 | 0.994 | 0.748 | 0.372 |
| NCI-H647 | 0.572 | 0.722 | 0.748 | 0.442 | 0.306 | 0.625 | 0.757 | 0.502 | 0.433 | 0.29 | 0.712 | 0.613 | 0.559 | 0.301 | 1.09 | 1.28 | 1.06 | 0.419 | 0.11 |
| NCI-H1944 | 0.401 | 0.439 | 0.366 | 0.345 | 0.272 | 0.533 | 0.65 | 0.5 | 0.485 | 0.477 | 0.436 | 0.428 | 0.344 | 0.342 | 0.81 | 0.774 | 0.556 | 0.422 | 0.273 |
| LK-2 | 0.196 | 0.178 | 0.165 | 0.216 | 0.196 | 0.125 | 0.317 | 0.247 | 0.273 | 0.257 | 0.247 | 0.216 | 0.201 | 0.159 | 1.1 | 1.03 | 1.04 | 0.692 | 0.421 |
| HCC-15 | 0.709 | 0.702 | 0.644 | 0.506 | 0.456 | 0.859 | 0.929 | 0.881 | 0.792 | 0.575 | 0.655 | 0.651 | 0.559 | 0.437 | 0.86 | 0.919 | 0.705 | 0.488 | 0.243 |
| NCI-H838 | 0.348 | 0.381 | 0.348 | 0.31 | 0.278 | 0.725 | 0.754 | 0.676 | 0.646 | 0.5 | 0.414 | 0.401 | 0.308 | 0.246 | 1.03 | 1.15 | 1.13 | 0.72 | 0.301 |
| HOP-62 | 0.947 | 0.938 | 0.713 | 0.748 | 0.481 | 0.753 | 0.768 | 0.674 | 0.58 | 0.373 | 0.882 | 0.866 | 0.802 | 0.81 | 1.02 | 0.9 | 0.929 | 0.599 | 0.348 |
| NCI-H322M | 0.526 | 0.523 | 0.544 | 0.49 | 0.416 | 0.823 | 0.85 | 0.851 | 0.904 | 0.764 | 0.514 | 0.54 | 0.661 | 0.475 | 0.817 | 0.826 | 0.738 | 0.866 | 0.675 |
| NCI-H1395 | 0.562 | 0.49 | 0.523 | 0.604 | 0.519 | 0.66 | 0.727 | 0.542 | 0.637 | 0.595 | 0.78 | 0.582 | 0.627 | 0.448 | 1.09 | 1.22 | 1.02 | 0.81 | 0.522 |
| NCI-H650 | 0.545 | 0.511 | 0.488 | 0.474 | 0.478 | 0.495 | 0.412 | 0.474 | 0.515 | 0.392 | 0.565 | 0.489 | 0.501 | 0.378 | 1.18 | 1.13 | 1.03 | 0.763 | 0.339 |
| NCI-H661 | 0.709 | 0.7 | 0.659 | 0.619 | 0.539 | 0.766 | 0.803 | 0.769 | 0.806 | 0.529 | 0.766 | 0.867 | 0.611 | 0.596 | 0.733 | 0.735 | 0.68 | 0.856 | 0.683 |
| NCI-H1734 | 0.719 | 0.638 | 0.576 | 0.542 | 0.417 | 0.815 | 0.858 | 0.612 | 0.706 | 0.522 | 0.686 | 0.645 | 0.615 | 0.403 | 0.765 | 0.779 | 0.681 | 0.737 | 0.581 |
| EKVX | 0.626 | 0.484 | 0.888 | 0.673 | 0.558 | 0.698 | 0.794 | 0.678 | 0.644 | 0.556 | 0.707 | 0.736 | 0.755 | 0.612 | 0.942 | 0.989 | 0.771 | 0.48 | 0.317 |
| NCI-H520 | 0.263 | 0.257 | 0.233 | 0.263 | 0.211 | 0.74 | 0.747 | 0.77 | 0.699 | 0.451 | 0.255 | 0.263 | 0.249 | 0.223 | 0.836 | 0.848 | 0.963 | 0.764 | 0.451 |
| LOU-NH91 | 0.699 | 0.686 | 0.739 | 0.68 | 0.657 | 0.95 | 0.975 | 0.926 | 0.86 | 0.78 | 0.777 | 0.726 | 0.826 | 0.56 | 0.701 | 0.747 | 0.718 | 0.592 | 0.605 |
| COR-L23 | 0.937 | 0.733 | 0.739 | 0.704 | 0.432 | 0.517 | 0.525 | 0.458 | 0.403 | 0.381 | 0.781 | 0.87 | 0.74 | 0.582 | 0.658 | 0.632 | 0.547 | 0.321 | 0.175 |
| NCI-H1437 | 0.816 | 0.844 | 0.791 | 0.6 | 0.535 | 0.82 | 0.919 | 0.818 | 0.816 | 0.432 | 0.913 | 0.976 | 0.819 | 0.806 | 0.822 | 0.594 | 0.388 | 0.167 | 0.138 |
| EPLC-272H | 0.311 | 0.305 | 0.289 | 0.247 | 0.328 | 0.339 | 0.487 | 0.286 | 0.429 | 0.53 | 0.32 | 0.249 | 0.306 | 0.274 | 0.955 | 0.998 | 0.795 | 0.526 | 0.38 |
| NCI-H1666 | 0.949 | 0.816 | 0.79 | 0.777 | 0.546 | 1.07 | 1.09 | 0.966 | 0.736 | 0.865 | 0.953 | 0.853 | 0.759 | 0.674 | 1.21 | 0.856 | 0.872 | 0.318 | 0.322 |
| HCC-44 | 0.458 | 0.567 | 0.39 | 0.391 | 0.419 | 1.03 | 1.15 | 1.2 | 1.22 | 1.02 | 0.672 | 0.493 | 0.407 | 0.28 | 0.778 | 0.588 | 0.46 | 0.329 | 0.187 |
| RERF-LC-KJ | 0.558 | 0.594 | 0.558 | 0.458 | 0.462 | 0.696 | 0.782 | 0.653 | 0.603 | 0.598 | 0.592 | 0.52 | 0.507 | 0.305 | 0.846 | 0.704 | 0.866 | 0.647 | 0.427 |
